Patent publication US20110045004A1, “METHOD FOR IN-VITRO DETECTING PATHOGENIC T HELPER CELLS AND PHARMACEUTICAL COMPOSITIONS FOR TREATING AUTOIMMUNE DISEASES” (DEUTCHES RHEUMA-FORSCHUNGSZENTRUM BERLIN, priority 2007, published 2011)

How the values were obtained:
[1] = test system: twist1 mRNA in 4-w-old Th1 cells; assay: twist1 mRNA (RT PCR) in restimulated 4-w-old Th1 cells with inhibitors or single stimuli; format: cell-based, murine; conditions: for PMA/ionomycin mediated up-regulation of twist1 mRNA expression: 4-w-old Th1 cells restimulated 3 h with PMA/ionomycin and IL-2, serial dilutions of inhibitor (FIG. 2B); for induction of twist1 expression by stimulus alone: 4-w-old Th1 cells restimulated 3 h in the presence of IL-2 (FIG. 2C)
Description: (§1) Lymphocytes were cultured in complete RPMI1640 (Invitrogen) supplemented with 10% heat-inactivated fetal calf serum, 100 units/ml penicillin, 0.1 mg/ml streptomycin and 10 μM β-mercaptoethanol. Naïve CD4+CD62L+ lymphocytes from 6-8 w old DO11.10 mice were isolated as described. Irradiated (30 Gy) BALB/c splenocytes were used as APCs at a ratio of 5:1. The cognate peptide ova323-339 (R. Volkmer-Engert, Humboldt University of Berlin, Germany) was added at 0.5 μM. Alternatively, plates were coated with 3 μg/ml anti-CD3 (145-2C11) in PBS, and CD4+ cells were plated at a density of 2×10^6 cells/ml in medium plus 1 μg/ml soluble anti-CD28 (37.51). For Th1 differentiation, cells were stimulated in the presence of 5 ng/ml recombinant murine IL-12 (R&D Systems) and 5 μg/ml anti-IL-4 antibody (11B11). For Th2 differentiation, cells were stimulated in the presence of murine IL-4 (100 ng/ml, culture supernatant of HEK293T cells transfected with an expression plasmid, encoding murine IL-4), 5 μg/ml anti-IL-12 antibody (C17.8.6) and anti-IFN-γ antibody (AN18.17.24). Dead cells were removed by Ficoll-Histopaque separation. Every 6 d viable Th cells were harvested and restimulated under the original conditions, except that 10 ng/ml murine IL-2 (R&D Systems) was added.
Cells were re-stimulated with 10 ng/ml PMA, and 1 μg/ml ionomycin. Alternatively, cells were re-stimulated with plate-bound anti-CD3 (10 μg/ml), and soluble anti-CD28 ([…]). For re-stimulation of murine T cells, 10 ng/ml IL-2 was added. For intracellular staining of cytokines, T cells were stimulated for 2 h with PMA/ionomycin and additional 3 h with 5 μg/ml of brefeldin A to block the secretion of cytokines. Cells were fixed with 2% formaldehyde in PBS for 15 min at room temperature and permeabilized with 0.5% w/v saponin.
(§2) Total RNA was prepared using NucleoSpin RNA II (Macherey-Nagel) or RNeasy kit (Qiagen). […] For the normalization of murine and human cDNA the transcripts for the housekeeping genes hypoxanthine guanine phosphoribosyl transferase (HPRT) and ubiquitin ligase H5 (UbCH5) were quantified, respectively. Data were evaluated using Lightcycler software. Relative expression was calculated as follows: Et^ΔCp target gene (reference-sample)/EhΔCp housekeeping gene (reference-sample), where Cp represents the crossing point and E represents the reaction efficiency, determined by serial dilution of DNA.
(A) Comparison of the genomic sequence of the murine and the human proximal twist1 promoter (−150 to −100). […] The binding of NFAT1 (D) and the NF-κB subunit p65 (E) to the proximal promoter of twist1 was analyzed by chromatin immunoprecipitation (ChIP). […] The immunoprecipitated DNA was quantified by RT PCR using primers specific for the proximal promoter. […]

[2] = test system: Rag-deficient mice, intestine; assay: Transfer colitis model with Hop shRNA transduced Th1 cells; format: in vivo, murine; conditions: Th1 cells transduced with shRNA transferred into Rag-deficient mice (FIG. 12)
From the text: To assess the functional role of hop we used a T cell dependent model of inflammatory bowel disease. In this model, T cells are transferred into Rag-deficient or SCID mice lacking T and B cells. In this model, the transferred T cells react against the intestinal bacterial flora leading to inflammation in the intestine. For the analysis of the function of Hop we inhibited the expression of Hop by shRNA-mediated knock-down. Polyclonally activated Th1 cells transduced with a retroviral vector encoding a Hop-specific shRNA or a control shRNA were transferred into Rag-deficient mice. […] The transfer of control Th1 cells lead to severe inflammation of the intestine with strong infiltration of inflammatory cells and a complete loss of the intestinal architecture.

[3] = test system: twist1 mRNA in DO11.10 Th cells; assay: twist1 mRNA induction by Th1-polarizing signals in DO11.10 Th cells; format: cell-based, murine; conditions: for induction of twist1 expression by polarizing signal: CD62Lhi DO11.10 Th cells stimulated 5 d, then 3 h PMA/ionomycin and IL-2, IFN-γ tested in the absence of IL-12 (FIG. 3A)
Description: as §1, §2
Twist1 mRNA of Th cells activated for 3 h with PMA/ionomycin and IL-2 was quantified by RT PCR (A-D). […] Twist1 transcripts were quantified on d 11. […]

**Q.** With O=C(Nc1ccc(-n2nc(C(F)(F)F)cc2C(F)(F)F)cc1)c1ccc(Cl)cc1 [BTP1] as the molecule, how does the “PMA/ionomycin mediated up-regulation of twist1 mRNA expression” value [1] read?
**A.** The value was “blocked the PMA/ionomycin mediated up-regulation of twist1 mRNA expression in a dose-dependent fashion”.

**Q.** For S=C(S)N1CCCC1 [PDTC, pyrrolidine dithiocarbamate], which “PMA/ionomycin mediated up-regulation of twist1 mRNA expression” value [1] is on record?
**A.** Its value is “blocked the PMA/ionomycin mediated up-regulation of twist1 mRNA expression in a dose-dependent fashion”.

**Q.** Which “induction of twist1 expression by stimulus alone” value [1] does the source give for CCCCCCCCCCCCCC(=O)O[C@@H]1[C@@H](C)[C@@]2(O)[C@@H](C=C(CO)C[C@]3(O)C(=O)C(C)=C[C@@H]23)[C@@H]2C(C)(C)[C@]12OC(C)=O [PMA] here?
**A.** The value was “did not induce twist1 expression”.

**Q.** For “Hop-specific shRNA: retroviral vector encoded shRNA against Hop, target sequence SEQ ID NO. 40, whole shRNA SEQ ID NO. 41 (TGCAGATCTGTTACGGACTATTCAAGAGATAGTCCGTAACAGATCTGCTTTTTTC)”, which “clinical signs of inflammation, histological analysis of the intestine” value [2] is on record?
**A.** The value was “strongly reduced clinical signs of inflammation”.

**Q.** Which “induction of twist1 expression by polarizing signal” value [3] does the source give for “IFN-γ: cytokine added in the absence of IL-12, 10 ng/ml” here?
**A.** Its value is “did not induce twist1 expression”.

**Q.** TNF-α was tested. Which “induction of twist1 expression by stimulus alone” value [1] did it give?
**A.** Its value is “did not induce twist1 expression”.

B1: IL-12: recombinant murine IL-12, Th1-polarizing signal (protein, UniProt P43431 23-215; P43432 23-335, looked up)
Interleukin-12 subunit alpha: RVIPVSGPARCLSQSRNLLKTTDDMVKTAREKLKHYSCTAEDIDHEDITRDQTSTLKTCLPLELHKNESCLATRETSSTTRGSCLPPQKTSLMMTLCLGSIYEDLKMYQTEFQAINAALQNHNHQQIILDKGMLVAIDELMQSLNHNGETLRQKPPVGEADPYRVKMKLCILLHAFSTRVVTINRVMGYLSSA
Interleukin-12 subunit beta: MWELEKDVYVVEVDWTPDAPGETVNLTCDTPEEDDITWTSDQRHGVIGSGKTLTITVKEFLDAGQYTCHKGGETLSHSHLLLHKKENGIWSTEILKNFKNKTFLKCEAPNYSGRFTCSWLVQRNMDLKFNIKSSSSSPDSRAVTCGMASLSAEKVTLDQRDYEKYSVSCQEDVTCPTAEETLPIELALEARQQNKYENYSTSFFIRDIIKPDPPKNLQMKPLKNSQVEVSWEYPDSWSTPHSYFSLKFFVRIQRKKEKMKETEEGCNQKGAFLVEKTSTEVQCKGGNVCVQAQDRYYNSSCSKWACVPCRVRS
**Q.** B1 was tested. Which “induction of twist1 expression by polarizing signal” value [3] did it give?
**A.** Its value is “induced twist1 expression in a dose-dependent fashion”.

**Q.** What about the “increase of TCR activation-dependent twist1 expression over one week stimulated Th1 cells” value ([3]; Th1 cells polarized one week with IL-12, reactivated another week in the presence of IL-12 (FIG. 3D)) of the same molecule?
**A.** Its value is 16 fold.
